biological target: T1, USP28 (His-tagged USP28-FL-mammalian) (Homo sapiens, UniProt Q96RU2); assay: Ubiquitin-Rhodamine 110 Assay for USP28 Activity, Example A-1(a); assay type: biochemical; details: Ubiquitin-Rhodamine 110 assay, Example A-1(a); read-out: USP28 A-1(a) IC50 range
T1 construct: Expression of USP28 (1-1077)-TEV-6*His (pTT5 vector); made in house; host or cells: Expi293f cells (pTT5 vector)
T1 sequence (Q96RU2 1-1077): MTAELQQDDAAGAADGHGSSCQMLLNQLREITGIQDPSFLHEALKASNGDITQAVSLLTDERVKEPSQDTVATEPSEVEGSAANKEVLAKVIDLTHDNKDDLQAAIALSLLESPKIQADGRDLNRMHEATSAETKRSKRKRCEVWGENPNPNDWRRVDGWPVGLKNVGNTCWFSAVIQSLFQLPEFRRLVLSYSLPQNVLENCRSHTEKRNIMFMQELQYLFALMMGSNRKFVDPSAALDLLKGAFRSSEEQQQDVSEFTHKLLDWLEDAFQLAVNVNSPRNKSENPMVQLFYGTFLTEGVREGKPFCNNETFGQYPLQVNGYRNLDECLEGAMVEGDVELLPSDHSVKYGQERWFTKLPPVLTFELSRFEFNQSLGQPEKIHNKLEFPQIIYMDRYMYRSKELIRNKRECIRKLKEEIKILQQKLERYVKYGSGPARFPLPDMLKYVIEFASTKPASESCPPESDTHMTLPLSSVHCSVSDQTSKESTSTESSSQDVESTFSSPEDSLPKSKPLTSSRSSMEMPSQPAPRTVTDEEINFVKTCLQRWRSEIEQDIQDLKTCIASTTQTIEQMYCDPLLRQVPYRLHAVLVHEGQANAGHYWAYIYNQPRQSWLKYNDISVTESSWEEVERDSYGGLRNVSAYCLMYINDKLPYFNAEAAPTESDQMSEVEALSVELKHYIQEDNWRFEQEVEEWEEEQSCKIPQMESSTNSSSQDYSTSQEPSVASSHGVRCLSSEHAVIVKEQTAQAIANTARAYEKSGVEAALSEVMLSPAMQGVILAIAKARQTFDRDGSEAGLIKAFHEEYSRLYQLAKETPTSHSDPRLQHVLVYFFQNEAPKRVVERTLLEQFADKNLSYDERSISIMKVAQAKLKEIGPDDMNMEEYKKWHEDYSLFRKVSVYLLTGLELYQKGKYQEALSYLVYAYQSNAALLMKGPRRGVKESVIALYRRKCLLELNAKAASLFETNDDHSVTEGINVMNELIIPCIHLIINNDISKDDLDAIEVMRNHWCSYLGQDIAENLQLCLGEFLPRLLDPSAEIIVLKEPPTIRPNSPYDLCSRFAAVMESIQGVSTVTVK
Method: Example A-1(a): Biochemical Assay: Ubiquitin-Rhodamine 110 Assay for USP28 Activity
The assay was performed in a final volume of 9 μL in assay buffer containing 20 mM Tris-HCl (pH 8.0, (1M Tris-HCl, pH 8.0 solution; Corning 46-031-CM)), 3 mM BME (2-Mercaptoethanol; Sigma 63689-25ML-F), 0.03% BGG (0.22 μM filtered, Sigma, G7516-25G), and 0.01% Triton X-100 (Sigma, T9284-10L). Nanoliter quantities of 10-point, 3-fold serial dilution in DMSO was pre-dispensed into 1536 assay plates (Corning, #3724BC) for a final test concentration of 25 μM to 1.3 nM, top to lowest dose, respectively. Enzyme USP28, construct His-tagged USP28-FL-mammalian, (protein expression and purification procedure described below). Concentration and incubation times were optimized for the maximal signal-to-background while maintaining initial velocity conditions at a fixed substrate concentration. The final concentration of the enzyme in the assay was 75 μM. Final substrate (Ub-Rh110; Ubiquitin-Rhodamine 110, UbiQ-126) concentration was 25 nM with [Ub-Rh110]<<Km. 3 μL of 2× enzyme was added to assay plates (pre-stamped with compound) preincubated with […] for 30 minutes and then 3 μL of 2×Ub-Rh110 was added to assay plates. Plates were incubated for 45 minutes at room temperature before addition of 3 μL of stop solution (final concentration of 10 mM citric acid (Sigma, 251275-500G)). Fluorescence was read on the Envision (Excitation at 485 nm and Emission at 535 nm; Perkin Elmer) or on the PheraSTAR (Excitation at 485 nm and Emission at 535 nm; BMG Labtech).
Procedure for the Protein Expression and Purification for Construct His-Tagged USP28-FL-Mammalian
Expression of USP28 (1-1077)-TEV-6*His (pTT5 vector) was carried out in Expi293f cells (sequence derived from uniprot ID: Q96RU2-1). Cells were re-suspended in lysis buffer B 50 mM Bicine, pH 8.0, 20 mM NaCl, 5% glycerol, 0.1% CHAPS, 5 mM β-ME, 1 mM PMSF, 1 ug/ml Leupeptin, 1 ug/ml Pepstatin) and lysed by sonication. Insoluble material was removed by centrifugation and the supernatant was loaded onto a Ni-NTA column (GE Healthcare) equilibrated with Ni Buffer A (50 mM Bicine, pH 8.0, 20 mM NaCl, 5% glycerol, 0.1% CHAPS, 5 mM β-ME.) and washed with Ni Buffer A+20 mM imidazole until A280 reached baseline. The protein was eluted with Ni Buffer B (50 mM Bicine, pH 8.0, 20 mM NaCl, 5% glycerol, 0.1% CHAPS, 5 mM β-ME, 300 mM imidazole.). The protein was further purified using a Superdex™ 200 10/300 GL column (GE Healthcare) equilibrated with 50 mM Bicine, pH 8.0, 20 mM NaCl, 5% glycerol, 0.1% CHAPS, 5 mM β-ME. The protein was concentrated to 2.5 mg ml^−1, flash-frozen in liquid N2 and stored at −80° C.
For assay formats Example A-1(a), A-1(b), and A-2, data were reported as percent inhibition compared with control wells based on the following equation: % inh=1−((FLU−AveLow)/(AveHigh−AveLow)) where FLU=measured Fluorescence, AveLow=average Fluorescence of no enzyme control (n=16), and AveHigh=average Fluorescence of DMSO control (n=16). IC50 values were determined by curve fitting of the standard 4 parameter logistic fitting algorithm included in the Activity Base software package: IDBS XE Designer Model 205. Data is fitted using the Levenburg Marquardt algorithm.

CN[C@H]1CN(c2ccc3c(n2)CC[C@H](NC(=O)c2sc4nc(C)ccc4c2N)C3)C[C@@H]1COC (single isomer, unassigned) [Example 26-1] and CN[C@@H]1CN(c2ccc3c(n2)CC[C@H](NC(=O)c2sc4nc(C)ccc4c2N)C3)C[C@H]1COC (single isomer, unassigned) [Example 26-2] fall in the same range of IC50: 50 to 200 nM for the first, 50 to 200 nM for the second.

Cc1ccc2c(N)c(C(=O)N[C@H]3CCc4nc(N5C[C@@H](CF)[C@@H](N)C5)ccc4C3)sc2n1 (single isomer, unassigned) [Example 27-1] and Cc1ccc2c(N)c(C(=O)N[C@H]3CCc4nc(N5C[C@H](CF)[C@H](N)C5)ccc4C3)sc2n1 (single isomer, unassigned) [Example 27-2] fall in the same range of IC50: 50 to 200 nM for the first, 50 to 200 nM for the second.

COCCO[C@H]1CN(c2ccc3c(n2)CC[C@H](NC(=O)c2sc4nc(C)ccc4c2N)C3)C[C@@H]1N (single isomer, unassigned) [Example 28-1] and COCCO[C@@H]1CN(c2ccc3c(n2)CC[C@H](NC(=O)c2sc4nc(C)ccc4c2N)C3)C[C@H]1N (single isomer, unassigned) [Example 28-2] fall in the same range of IC50: 200 to 2000 nM for the first, 200 to 2000 nM for the second.

Cc1ccc2c(N)c(C(=O)N[C@H]3CCc4nc(N5C[C@H](N)C6(C5)OCCO6)ccc4C3)sc2n1 (single isomer, unassigned) [Example 29-1] and Cc1ccc2c(N)c(C(=O)N[C@H]3CCc4nc(N5C[C@@H](N)C6(C5)OCCO6)ccc4C3)sc2n1 (single isomer, unassigned) [Example 29-2] fall in the same range of IC50: 200 to 2000 nM for the first, 200 to 2000 nM for the second.

First: Cc1cc(C)c2c(N)c(C(=O)N[C@H]3CCc4nc(N5C[C@H](OC(C)C)[C@@H](N)C5)ncc4C3)sc2n1 (single isomer, unassigned) [Example 31-1]
Second: Cc1cc(C)c2c(N)c(C(=O)N[C@@H]3CCc4nc(N5C[C@H](OC(C)C)[C@@H](N)C5)ncc4C3)sc2n1 (single isomer, unassigned) [Example 31-2]
The IC50 of the first is lower: 50 to 200 nM for the first, > 2000 nM for the second.

First: Cc1ccc2c(N)c(C(=O)N[C@H]3CCc4cc(N5CCNCC5)ncc4C3)sc2n1 (single isomer, unassigned) [Example 32-1]
Second: Cc1ccc2c(N)c(C(=O)N[C@@H]3CCc4cc(N5CCNCC5)ncc4C3)sc2n1 (single isomer, unassigned) [Example 32-2]
The IC50 of the first is lower: 50 to 200 nM for the first, 200 to 2000 nM for the second.

Compared with Cc1ccc2c(N)c(C(=O)N(C)[C@@H]3COc4cc(N5CCNCC5)cc(F)c4C3)sc2n1 [Example 10-16, 3-amino-N-[(3S)-5-fluoro-7-(piperazin-1-yl)-3,4-dihydro-2H-1-benzopyran-3-yl]-N,6-dimethylthieno[2,3-b]pyridine-2-carboxamide], Cc1ccc2c(N)c(C(=O)N[C@H]3COc4cc(N5CC6CNCC(C5)C6(F)F)ncc4C3)sc2n1 [Example 114, 3-amino-N-[(3R)-7-{9,9-difluoro-3,7-diazabicyclo[3.3.1]nonan-3-yl}-2H,3H,4H-pyrano[3,2-c]pyridin-3-yl]-6-methylthieno[2,3-b]pyridine-2-carboxamide] is lower in IC50: > 2000 nM for the first, 1 to 50 nM for the second. The second is the more potent here.

CO[C@H]1CN(c2cc3c(cn2)C[C@@H](NC(=O)c2sc4nc(C)ccc4c2N)CO3)C[C@@H]1N [Example 179, 3-amino-N-[(3R)-7-[(3S,4S)-3-amino-4-methoxypyrrolidin-1-yl]-2H,3H,4H-pyrano[3,2-c]pyridin-3-yl]-6-methylthieno[2,3-b]pyridine-2-carboxamide] and CCO[C@H]1CN(c2cc3c(cn2)C[C@@H](NC(=O)c2sc4nc(C)ccc4c2N)CO3)C[C@@H]1N [Example 180, 3-amino-N-[(3R)-7-[(3S,4S)-3-amino-4-ethoxypyrrolidin-1-yl]-2H,3H,4H-pyrano[3,2-c]pyridin-3-yl]-6-methylthieno[2,3-b]pyridine-2-carboxamide] fall in the same range of IC50: 1 to 50 nM for the first, 1 to 50 nM for the second.

With CO[C@H]1CN(c2ncc3c(n2)CC[C@H](NC(=O)c2sc4nc(C)ccc4c2N)C3)C[C@@H]1N [Example 186, 3-amino-N-[(6S)-2-[(3S,4S)-3-amino-4-methoxypyrrolidin-1-yl]-5,6,7,8-tetrahydroquinazolin-6-yl]-6-methylthieno[2,3-b]pyridine-2-carboxamide] the IC50 was > 2000 nM.

— patent publication US11524966B1 (Valo Early Discovery, Inc., priority 2017, dated 2022)
